According to patent publication US10501516B2, “Peptide compound” (TAKEDA PHARMACEUTICAL COMPANY LIMITED, priority 2016, dated 2019):
Square brackets hold non-standard residues; d marks the D form. Side chains are listed from the residue outwards. Peptide text beside a SMILES is read from it. * marks the point of attachment. NMeY = CN[C@@H](Cc1ccc(O)cc1)C(=O)O; Palmitoyl = CCCCCCCCCCCCCCCC(=O)*; αMeF = C[C@](N)(Cc1ccccc1)C(=O)O; Iva = CC[C@](C)(N)C(=O)O; Aib = CC(C)(N)C(=O)O

How the values were obtained:
Male KKA^y mice = test: Repeated administration in KKA^y mice; type: in vivo, mouse; conditions: for ALT / AST / TC / TG: plasma, mean ± SD
Method: Male KKA^y mice (10 weeks old) were divided into the groups based on the data of body weight, food intake, glycated hemoglobin (GHb), and plasma parameters. P41 was subcutaneously administered once a day for 4 weeks. Compounds were dissolved in 10% DMSO/saline. Body weight and food intake were monitored during the study. After the study, blood was collected and GHb and plasma parameters were measured. The animals were sacrificed, and the liver and the adipose tissues were dissected and weighed. Lipid was extracted from a piece of liver tissue and liver triglyceride (TG) content was measured.
Plasma glucose and TG were measured by Autoanalyzer 7180 (Hitachi High-Technologies Corporation, Japan). Blood GHb was measured with the automated GHb analyzers (HLC-723G8, Tosoh, Tokyo, Japan). Plasma insulin was measured with ELISA Assay kit (Shibayagi Co. Ltd., Japan). Liver TG content was measured as follows: a piece of tissue was homogenized in saline and lipid was extracted by the addition of hexane:isopropanol (3:2) solution. The lipid phase was collected, dried and then dissolved in isopropanol. The concentration of TG was measured by Triglyceride E-test (Wako Pure Chemical Industries) and TG content per g liver was calculated.

male C57BL/6J mouse = test: Evaluation of feeding suppressive action in mice; type: in vivo; conditions: 30 nmol/kg s.c. once a day for 3 days; 3-days cumulative food consumption vs solvent control
Summary of the method: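 Male C57BL/6J mice, 8-9 weeks, ad libitum fed, given compound (30 or 100 nmol/2 mL in 10% DMSO saline) s.c. at 2 mL/kg once daily for 3 days. Cumulative 3-day food consumption measured by weighing; suppression rate (%) calculated relative to vehicle controls.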

Male DIO C57BL/6J mice = test: Repeated dosing study in diet-induced obese (DIO) mice; type: in vivo, mouse; conditions: for ALT / AST / Insulin / TC / TG: plasma, mean ± SD
Method: Male DIO C57BL/6J mice (40 weeks old) were divided into the groups based on the data of body weight, food intake, and plasma parameters. Vehicle or the compounds (P41) of Example 41 was subcutaneously administered once a day for 4 weeks. Body weight and food intake were monitored during the study. Compounds were dissolved in 10% DMSO/saline. After the study, blood was collected and plasma parameters were measured. At day 29, body composition was measured by EchoMRI (Hitachi Aloka Medical, Ltd., Japan) and the animals were sacrificed. For hematoxylin and eosin (HE) staining, livers were dissected from DIO mice after 4 weeks drug administration described in the above body-weight studies section. Livers were fixed in 4% paraformaldehyde, embedded in paraffin, sectioned, and stained with HE. After processing, the sections were mounted and then examined via light microscopy (NanoZoomer, Hamamatsu Photonics).
Total RNA was isolated from the liver using QIAzol reagent (QIAGEN Japan, Tokyo, Japan) and cDNA was synthesized using High-Capacity cDNA Reverse Transcription Kit (Applied Biosystems, CA, USA). Quantitative RT-PCR was performed using the ABI Prism 7900 Sequence Detection System with EXPRESS qPCR Super Mix (Thermo Fisher Scientific Inc. MA. USA). Mixtures of primers and probes (Applied Biosystems) were used for the detection of mRNA (Table 4). The expression levels were normalized to those of beta-actin and Peptidyl isomerase A.
Plasma glucose, triglyceride (TG), total cholesterol (TC), aspartate aminotransferase (AST), and alanine aminotransferase (ALT) were analyzed by Autoanalyzer 7180 (Hitachi High-Technologies Corporation, Japan). Blood glycated hemoglobin (GHb) was measured with the automated GHb analyzers (HLC-723G8, Tosoh, Tokyo, Japan). Liver triglyceride content was measured as follows: a piece of tissue was homogenized in saline and lipid was extracted by the addition of hexane:isopropanol (3:2) solution. The lipid phase was collected, dried and then dissolved in isopropanol. The concentration of triglyceride was measured by Triglyceride E-test (Wako Pure Chemical Industries, Ltd, Japan) and triglyceride content per g liver was calculated. Plasma insulin was measured with ELISA Assay kit (Shibayagi Co. Ltd., Japan).

[1] = 10 nmol/kg s.c. once a day for 4 weeks
[2] = 30 nmol/kg s.c. once a day for 4 weeks
[3] = 100 nmol/kg s.c. once a day for 4 weeks
[4] = 10, 30 and 100 nmol/kg s.c. once a day for 4 weeks
[5] = 3 nmol/kg s.c. once a day for 4 weeks
[6] = 3, 10 and 30 nmol/kg s.c. once a day for 4 weeks, dose-dependent
[7] = quantitative RT-PCR, liver, 4 weeks

CCCCCCCCCCCCCCCC(=O)NCC(=O)NCC(=O)NCC(=O)NCC(=O)NCCCC[C@H](NC(=O)[C@H](CC(=O)O)NC(=O)[C@H](CO)NC(=O)[C@@H](NC(=O)[C@](C)(Cc1ccccc1)NC(=O)[C@@H](NC(=O)CNC(=O)[C@H](CCC(=O)O)NC(=O)C(C)(C)NC(=O)[C@H](Cc1ccc(O)cc1)NC)[C@@H](C)O)[C@@H](C)O)C(=O)N[C@@H](CO)C(=O)N[C@H](C(=O)NC(C)(C)C(=O)N[C@@H](CC(C)C)C(=O)N[C@@H](CCC(=O)O)C(=O)N[C@@H](CCCCN)C(=O)N[C@@H](CCC(N)=O)C(=O)N[C@@H](CCCNC(=N)N)C(=O)N[C@@H](CCC(N)=O)C(=O)N[C@@](C)(CC)C(=O)N[C@@H](CCC(=O)O)C(=O)N[C@@H](Cc1ccccc1)C(=O)N[C@H](C(=O)N[C@@H](CCCNC(=N)N)C(=O)N[C@@H](Cc1c[nH]cn1)C(=O)N[C@@H](CC(C)C)C(=O)N[C@@H](CC(C)C)C(=O)N[C@@H](CC(N)=O)C(=O)N[C@@H](CCCCN)C(=O)NC(C)(C)C(=O)N[C@H](C(=O)N[C@@H](CCCNC(=N)N)C(=O)N[C@@H](CCC(N)=O)C(=O)N[C@@H](CCCNC(=N)N)C(=O)N[C@@H](Cc1ccc(O)cc1)C(N)=O)[C@@H](C)O)C(C)C)[C@@H](C)CC [Example 41] (H-[NMeY][Aib]EGT[αMeF]TSDK([Gly-Gly-Gly-Gly-Palmitoyl])SI[Aib]LEKQRQ[Iva]EFVRHLLNK[Aib]TRQRY-NH2)
decrease in body weight compared with vehicle group (Male KKA^y mice; [1]): 4.2%
decrease in body weight compared with vehicle group (Male KKA^y mice; [2]): 9.8%
decrease in body weight compared with vehicle group (Male KKA^y mice; [3]): 30.1%
GHb, PG and plasma insulin levels (Male KKA^y mice; [4]): dose-dependent and significant decrease
liver tissue weight (Male KKA^y mice; [4]): Comparable reduction
ALT (Male KKA^y mice; [1]): 31.3 ± 9.7 U/L
AST (Male KKA^y mice; [1]): 53.4 ± 11.9 U/L
TC (Male KKA^y mice; [1]): 139.3 ± 19.0 mg/dL
TG (Male KKA^y mice; [1]): 357.1 ± 76.9 mg/dL
ALT (Male KKA^y mice; [2]): 24.9 ± 2.1 U/L
AST (Male KKA^y mice; [2]): 48.9 ± 8.6 U/L
TC (Male KKA^y mice; [2]): 155.9 ± 20.1 mg/dL
TG (Male KKA^y mice; [2]): 210.1 ± 53.3 mg/dL
ALT (Male KKA^y mice; [3]): 21.7 ± 7.6 U/L
AST (Male KKA^y mice; [3]): 52.6 ± 7.3 U/L
TC (Male KKA^y mice; [3]): 131.4 ± 14.0 mg/dL
TG (Male KKA^y mice; [3]): 138.1 ± 54.4 mg/dL
Rate of feeding suppression (%) (male C57BL/6J mouse): −52.1%
decrease in body weight compared with vehicle group (Male DIO C57BL/6J mice; [5]): 14.6%
decrease in body weight compared with vehicle group (Male DIO C57BL/6J mice; [1]): 30.0%
decrease in body weight compared with vehicle group (Male DIO C57BL/6J mice; [2]): 37.1%
lean mass (EchoMRI) (Male DIO C57BL/6J mice; 3, 10 and 30 nmol/kg s.c. once a day for 4 weeks): subtle decrease
fat mass (EchoMRI) (Male DIO C57BL/6J mice; [6]): drastic decrease
inguinal, mesenteric and epididymal fat pad weight (Male DIO C57BL/6J mice; [6]): significantly decreased
liver TG content (Male DIO C57BL/6J mice; [6]): drastically decreased
liver weight (Male DIO C57BL/6J mice; [6]): drastically decreased
ALT (Male DIO C57BL/6J mice; [5]): 94.2 ± 32.3 U/L
AST (Male DIO C57BL/6J mice; [5]): 170.0 ± 37.2 U/L
Insulin (Male DIO C57BL/6J mice; [5]): 4.9 ± 2.9 ng/mL
TC (Male DIO C57BL/6J mice; [5]): 253.6 ± 11.9 mg/dL
TG (Male DIO C57BL/6J mice; [5]): 50.5 ± 16.2 mg/dL
ALT (Male DIO C57BL/6J mice; [1]): 35.6 ± 9.7 U/L
AST (Male DIO C57BL/6J mice; [1]): 88.8 ± 11.7 U/L
Insulin (Male DIO C57BL/6J mice; [1]): 3.7 ± 2.7 ng/mL
TC (Male DIO C57BL/6J mice; [1]): 189.5 ± 22.1 mg/dL
TG (Male DIO C57BL/6J mice; [1]): 62.2 ± 16.1 mg/dL
ALT (Male DIO C57BL/6J mice; [2]): 37.5 ± 7.7 U/L
AST (Male DIO C57BL/6J mice; [2]): 90.2 ± 10.3 U/L
Insulin (Male DIO C57BL/6J mice; [2]): 5.2 ± 2.1 ng/mL
TC (Male DIO C57BL/6J mice; [2]): 173.2 ± 16.4 mg/dL
TG (Male DIO C57BL/6J mice; [2]): 50.2 ± 6.6 mg/dL
hepatic gene expression of inhibitor of fibrosis (MMP2) (Male DIO C57BL/6J mice; [7]): tended to increase
hepatic gene expression related to fibrosis (Timp1, Col1α) and inflammation (CCl2) (Male DIO C57BL/6J mice; [7]): tended to decrease
hepatic lipid droplet, HE staining of liver slices (Male DIO C57BL/6J mice; s.c. once a day for 4 weeks): Reduction of hepatic lipid droplet
